Assay results published in ChEMBL document CHEMBL5712922, “Synergistic effects of type I PRMT and PARP inhibitors against non-small cell lung cancer cells” (Clin Epigenetics, 2021).

Tested on: A549
Experiment: Antiproliferative against human A549 cells assessed as viable cells pretreated with MS023 for 24 hrs followed by compound addition at 10 uM measured after for 24 hrs relative to control
Settings: A549, 24 h, read-out: Activity

Row | SMILES | viability at 10 µM [%]
1 | Cc1cc(C)c(CNC(=O)c2cc(-c3ccc(N4CCN(C)CC4)nc3)cc3c2c(C)cn3C(C)C)c(=O)[nH]1 | 54.2
2 | Nc1nc(Nc2ccc(S(N)(=O)=O)cc2)nn1C(=O)c1c(F)cccc1F [JNJ-7706621] | 54.2
3 | O=C(Nc1nc2cccc(-c3ccc(CN4CCS(=O)(=O)CC4)cc3)n2n1)C1CC1 [FILGOTINIB] | 54.2
4 | Nc1cc(F)ccc1NC(=O)/C=C/c1cnn(C/C=C/c2ccccc2)c1 | 54.2
5 | O=C(c1ccc(/C=C/c2n[nH]c3ccccc23)cc1)N1CCNCC1 [KW-2449] | 54.2
6 | COc1cc2c(cc1O)CC[C@@H]1[C@@H]2CC[C@]2(C)[C@@H](O)CC[C@@H]12 [2-METHOXYESTRADIOL] | 54.2
7 | Nc1nc(OCc2cc(Br)cs2)c2[nH]cnc2n1 [LOMEGUATRIB] | 54.2
8 | COc1cc2c(NC3CCN(CC4CCCCC4)CC3)nc(N3CCCN(C(C)C)CC3)nc2cc1OCCCN1CCCCC1 | 54.2
9 | O=C(/C=C/c1ccc(CN(CCO)CCc2c[nH]c3ccccc23)cc1)NO [DACINOSTAT] | 54.2
10 | O=C(O)c1ccc(Nc2ncc3c(n2)-c2ccc(Cl)cc2C(c2c(F)cccc2F)=NC3)cc1 [MLN-8054] | 54.2
11 | Cc1csc(-c2nnc(Nc3ccc(Oc4ncccc4-c4ccnc(N)n4)cc3)c3ccccc23)c1 [AMG-900] | 54.2
12 | O=C(NC[C@H](O)CN1CCc2ccccc2C1)c1ccnc(NC2CCC2)c1 | 54.2
13 | NC(=O)c1cccc(N)c1 [3-AMINOBENZAMIDE] | 54.2
14 | CNNCc1ccc(C(=O)NC(C)C)cc1 | 54.2
15 | CCN(c1cc(C#CCN2CCOCC2)cc(C(=O)NCc2c(C)cc(C)[nH]c2=O)c1C)[C@H]1CC[C@H](N(C)CCOC)CC1 | 54.2
16 | Cc1cnc(Nc2ccc(OCCN3CCCC3)cc2)nc1Nc1cccc(S(=O)(=O)NC(C)(C)C)c1 [FEDRATINIB] | 54.2
17 | CCC(CC)(NC(=O)C(C)C)C(=O)N[C@@H](CCCNC(=N)N)C(=O)NC1(C(=O)NC(c2ccc(F)cc2)c2ccc(F)cc2)CCCC1 | 54.2
18 | O=C(Nc1c[nH]nc1-c1nc2ccc(CN3CCOCC3)cc2[nH]1)NC1CC1 [AT-9283] | 54.2
19 | N#CC[C@@H](C1CCCC1)n1cc(-c2ncnc3[nH]ccc23)cn1 | 54.2
20 | O=c1ccc2ccc(O)c(O)c2o1 [DAPHNETIN] | 54.2
21 | Cc1sc2c(c1C)C(c1ccc(Cl)cc1)=N[C@@H](CC(N)=O)c1nnc(C)n1-2 | 54.2
22 | CC[C@@](C)(Nc1ccnc(-c2c[nH]c3ncccc23)n1)C(=O)NCC(F)(F)F [DECERNOTINIB] | 54.2
23 | CCN(CC)Cc1ccc2cc(COC(=O)Nc3ccc(C(=O)NO)cc3)ccc2c1 [GIVINOSTAT] | 54.2
24 | CNS(=O)(=O)C[C@H]1CC[C@H](N(C)c2[nH]cnc3nccc2-3)CC1 [OCLACITINIB] | 54.2
25 | CN1CCN(c2cccc(Nc3nc4c(-c5ccc(S(C)(=O)=O)cc5)cccn4n3)c2)CC1 | 54.2
26 | CN(C)Cc1c(C(=O)NCCOc2ccc(C(=O)NO)cc2)oc2ccccc12 [ABEXINOSTAT] | 54.2
27 | O=C(Nc1ccccc1-c1cn2c(CN3CCNCC3)csc2n1)c1cnc2ccccc2n1 | 54.2

Row | SMILES | viability at 10 µM [%]
28 | CN1CCCN(C(=O)c2cccc(-c3ccc(/C=C4/C(=O)Nc5ccc(Cl)cc54)o3)c2)CC1 | 54.2
29 | N#CCNC(=O)c1ccc(-c2ccnc(Nc3ccc(N4CCOCC4)cc3)n2)cc1 [MOMELOTINIB] | 54.2
30 | Cn1c(/C=C/C(=O)NO)ccc1/C=C/C(=O)c1cccc(F)c1 | 54.2
31 | C[C@H](NC(=O)/C(C#N)=C/c1cccc(Br)n1)c1ccccc1 [WP 1066] | 54.2
32 | O=C(NC[C@H](O)CN1CCc2ccccc2C1)c1cc(NC2COC2)ncn1 | 54.2
33 | C[C@H](NC(=O)CCc1nc2ccccc2c(=O)[nH]1)c1ccccc1 | 54.2
34 | Cc1nc(C(=O)NCC(=O)O)c(O)c2ccc(Oc3ccccc3)cc12 [ROXADUSTAT] | 54.2
35 | COc1cccc2c1C(=O)c1c(O)c3c(c(O)c1C2=O)C[C@@](O)(C(=O)CO)C[C@@H]3O[C@H]1C[C@H](N)[C@H](O[C@@H]2CCCCO2)[C@H](C)O1 [PIRARUBICIN] | 54.2
36 | CN(C)Cc1ccc(-c2nc3cccc4c3n2CCNC4=O)cc1 | 54.2
37 | CN1CCC(CNc2ccc3ncc(-c4cccc(OC(F)(F)F)c4)n3n2)CC1 [SGI-1776] | 54.2
38 | CCCOc1ccn2c(C(C)=O)cc(-c3ccccc3S(C)(=O)=O)c2c1 | 54.2
39 | COC(=O)c1ccc2c(c1)nc(NC(=O)c1ccccc1)n2CCCc1ccccc1 | 54.2
40 | COc1cc2nc(N3CCCN(C)CC3)nc(NC3CCN(Cc4ccccc4)CC3)c2cc1OC | 54.2
41 | C1=N/C2=N/c3ccc(OCCN4CCCC4)c(c3)COC/C=C/COCc3cccc(c3)C(=C1)N2 [PACRITINIB] | 54.2
42 | Nc1ncn([C@H]2C[C@H](O)[C@@H](CO)O2)c(=O)n1 [DECITABINE] | 54.2
43 | Cc1cc(N2C[C@@H](C)N[C@@H](C)C2)ncc1-c1ccc(-c2nc3c(ccn3C)c(=O)[nH]2)cc1 | 54.2
44 | c1ccc([C@@H]2C[C@H]2NC2CCNCC2)cc1 | 54.2
45 | CCS(=O)(=O)Nc1ccc2c(c1)/C(=C(/Nc1ccc(CN3CCCCC3)cc1)c1ccccc1)C(=O)N2 [HESPERADIN] | 54.2
46 | CC(/C=C/C(=O)NO)=C\[C@@H](C)C(=O)c1ccc(N(C)C)cc1 [TRICHOSTATIN] | 54.2
47 | N#C/C(=C\c1ccc(O)c(O)c1)C(=O)NCc1ccccc1 | 54.2
48 | O=C(NCC(=O)N1CCCC1)Nc1ccc2cnccc2c1 | 54.2
49 | Fc1cc(-c2cccc3ncc(-c4cnn(C5CCNCC5)c4)nc23)cc(F)c1CN1CCOCC1 | 54.2
50 | Cc1[nH]c2ccccc2c1CCNCc1ccc(/C=C/C(=O)NO)cc1 [PANOBINOSTAT] | 54.2
51 | CC(C)N(CCCNC(=O)Nc1ccc(C(C)(C)C)cc1)C[C@H]1O[C@@H](n2cc(Br)c3c(N)ncnc32)[C@H](O)[C@@H]1O | 54.2
52 | CC(C)N(CCCNC(=O)Nc1ccc(C(C)(C)C)cc1)C[C@H]1O[C@@H](n2ccc3c(N)ncnc32)[C@H](O)[C@@H]1O | 54.2
53 | CN1CCc2c(c3ccccc3n2Cc2ccc(C(=O)NO)cc2)C1 | 54.2
54 | COc1cc(-c2cn(C)c(=O)c3cnccc23)cc(OC)c1CN(C)C | 54.2

Row | SMILES | viability at 10 µM [%]
55 | COc1cc(OC)c2c(=O)[nH]c(-c3cc(C)c(OCCO)c(C)c3)nc2c1 [APABETALONE] | 54.2
56 | Cc1cc(/N=N/c2ccc(S(=O)(=O)Nc3ccccn3)cc2)c(N)cc1O | 54.2
57 | CCS(=O)(=O)c1cccc(-c2cc(C(=O)NC3CCN(C)CC3)c(C)c3[nH]c4ncc(C)cc4c23)c1 [TAK-901] | 54.2
58 | COc1ccc(C(=O)C2CCN(CC(=O)N(Cc3nc4c(c(=O)[nH]3)COCC4)CC3CC3)CC2)cc1 | 54.2
59 | Nc1ccccc1NC(=O)c1ccc(CNC(=O)OCc2cccnc2)cc1 [ENTINOSTAT] | 54.2
60 | O=c1ncccn1[C@@H]1O[C@H](CO)[C@@H](O)[C@H]1O [ZEBULARINE] | 54.2
61 | CC(NC(=O)c1ccccc1/N=C/c1c(O)ccc2ccccc12)c1ccccc1 (stereo not given) [SIRTINOL] | 54.2
62 | N[C@H]1CC[C@H](N[C@@H]2C[C@H]2c2ccccc2)CC1 | 54.2
63 | Cc1cc(Nc2nc(N[C@@H](C)c3ncc(F)cn3)ncc2Cl)[nH]n1 [AZD-1480] | 54.2
64 | CCS(=O)(=O)N1CC(CC#N)(n2cc(-c3ncnc4[nH]ccc34)cn2)C1 [BARICITINIB] | 54.2
65 | O=c1oc2c(O)c(O)cc3c(=O)oc4c(O)c(O)cc1c4c23 [ELLAGIC ACID] | 54.2
66 | CCOC(=O)CCNc1cc(N2CCc3ccccc3CC2)nc(-c2ccccn2)n1 | 54.2
67 | COc1ccc(Cn2ccc3ccc(C(=O)NO)cc32)cc1 | 54.2
68 | CCn1cc(C(=O)O)c(=O)c2cc(F)c(N3CCNCC3)cc21 [NORFLOXACIN] | 54.2
69 | Cn1cc(-c2ccc(S(=O)(=O)n3ccc(/C=C/C(=O)Nc4ccccc4N)c3)cc2)cn1 [DOMATINOSTAT] | 54.2
70 | Oc1ccc(/C=C/c2cc(O)cc(O)c2)cc1 [RESVERATROL] | 54.2
71 | Cc1cc(Nc2ccc(NC(=O)c3ccc(Nc4ccnc5ccccc45)cc3)cc2)nc(N)n1 | 54.2
72 | O=C(O)c1ccc(CN2CCC(CN[C@@H]3C[C@H]3c3ccccc3)CC2)cc1 | 54.2
73 | O=C(c1cncc(Br)c1)N1CCC(N2CCCC2)CC1 | 54.2
74 | CCCCc1nc2cc(/C=C/C(=O)NO)ccc2n1CCN(CC)CC [PRACINOSTAT] | 54.2
75 | CCCCN(Cc1ccc(C(=O)NO)cc1)C(=O)Nc1ccccc1 [NEXTURASTAT A] | 54.2
76 | CCN(CC)C(=O)/C(C#N)=C/c1cc(O)c(O)c([N+](=O)[O-])c1 [ENTACAPONE] | 54.2
77 | O=C(O)C(O)C(O)C(=O)O (stereo not given) [TARTARIC ACID] | 54.2
78 | CCn1cc(-c2cccc(C(F)(F)F)c2)c2sc(C(=N)NC3CCS(=O)(=O)CC3)cc2c1=O | 54.2
79 | CN(CC[C@H](N)CC(=O)N[C@H]1C=C[C@H](n2ccc(N)nc2=O)O[C@@H]1C(=O)O)C(=N)N | 54.2
80 | Cc1cc(Cl)ccc1OCCCC(=O)NO | 54.2
